Laboratory results from ChEMBL document CHEMBL1201862, “PubChem BioAssay data set” (2004).
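These data come from cells grown in 96-well plates and exposed to compound for 48 hours at five concentrations. GI50: concentration for 50% inhibition of growth.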 Activity calls are given as the source filed them. No stated cut-off is given here; in the data, active = GI50 up to about 1.1 µM and inactive = higher.

How the values were obtained:
Assay in all cases: DTP human tumour cell line panel, 48 h
SN12C = test system: SN12C
NCI-H460 = test system: NCI-H460
HL-60 = test system: HL-60
HOP-92 = test system: HOP-92
NCI/ADR-RES = test system: NCI/ADR-RES
SF-295 = test system: SF-295
HCT-15 = test system: HCT-15
SK-MEL-28 = test system: SK-MEL-28
MCF7 = test system: MCF7
U-251 = test system: U-251
CAKI-1 = test system: CAKI-1
IGROV-1 = test system: IGROV-1
HCT-116 = test system: HCT-116
Malme-3M = test system: Malme-3M
SK-OV-3 = test system: SK-OV-3
UACC-62 = test system: UACC-62
MDA-MB-231 = test system: MDA-MB-231
A549 = test system: A549
SK-MEL-5 = test system: SK-MEL-5
SF-268 = test system: SF-268

Compound | GI50 (SN12C) | GI50 (NCI-H460) | GI50 (HL-60) | GI50 (HOP-92) | GI50 (NCI/ADR-RES) | GI50 (SF-295) | GI50 (HCT-15) | GI50 (SK-MEL-28) | GI50 (MCF7) | GI50 (U-251) | GI50 (CAKI-1) | GI50 (IGROV-1) | GI50 (HCT-116) | GI50 (Malme-3M) | GI50 (SK-OV-3) | GI50 (UACC-62) | GI50 (MDA-MB-231) | GI50 (A549) | GI50 (SK-MEL-5) | GI50 (SF-268)
N#CCCN(CCCN(C(=O)Nc1ccccc1)c1ccccc1)C(=O)Nc1ccccc1 | > 100 µM (inactive) | 77.4 µM (inactive) | 27.2 µM (inactive) | 71.1 µM (inactive) | > 100 µM (inactive) | > 100 µM (inactive) | > 100 µM | > 100 µM (inactive) | 84.5 µM (inactive) | > 100 µM (inactive) | 15 µM (inactive) | > 100 µM (inactive) | > 100 µM (inactive) | > 100 µM (inactive) | > 100 µM (inactive) | > 100 µM (inactive) | > 100 µM (inactive) | 78.9 µM (inactive) | > 100 µM (inactive) | 
COc1cc(C2SCC(=O)N2c2ccc(NC(=O)c3ccc(N4C(=O)CSC4c4cc(OC)c(OC)c(OC)c4)cc3)cc2)cc(OC)c1OC (stereo not drawn) | > 100 µM (inactive) | > 100 µM (inactive) |  | 16.4 µM (inactive) | 25.2 µM (inactive) | 29.3 µM (inactive) | 38.5 µM | 42.5 µM (inactive) | 43.3 µM (inactive) | 49.3 µM (inactive) | > 100 µM (inactive) | 32.4 µM (inactive) | 35.1 µM (inactive) | 79.1 µM (inactive) | > 100 µM (inactive) | 24.9 µM (inactive) | > 100 µM (inactive) | > 100 µM (inactive) | 46.3 µM (inactive) | 81.3 µM (inactive)
O=C(OCc1ccccc1CN1CCOCC1)c1ccc(Br)cc1 | 76 µM (inactive) | > 100 µM (inactive) |  | 93.1 µM (inactive) | 42 µM (inactive) |  | 57.1 µM | 92 µM (inactive) | 39.6 µM (inactive) | 88.7 µM (inactive) |  | 47.8 µM (inactive) | 32.6 µM (inactive) | 23.3 µM (inactive) | > 100 µM (inactive) | 55 µM (inactive) | 71.4 µM (inactive) | 45.6 µM (inactive) | 12.2 µM (inactive) | > 100 µM (inactive)
CCP(=O)(OC)C1=CCN(C(=O)OCC[Si](C)(C)C)CC1 (stereo not drawn) |  | > 100 µM (inactive) | > 100 µM (inactive) | > 100 µM (inactive) | > 100 µM (inactive) | > 100 µM (inactive) | > 100 µM | > 100 µM (inactive) | > 100 µM (inactive) | > 100 µM (inactive) | > 100 µM (inactive) | > 100 µM (inactive) |  | > 100 µM (inactive) | > 100 µM (inactive) | > 100 µM (inactive) | > 100 µM (inactive) | > 100 µM (inactive) | > 100 µM (inactive) | > 100 µM (inactive)
COc1cc(S(=O)(=O)Nc2ccc(-c3csc(/N=C\c4ccccc4)n3)cc2)ccc1Cl | > 100 µM (inactive) |  | 25.6 µM (inactive) | > 100 µM (inactive) | > 100 µM (inactive) | 76.9 µM (inactive) | > 100 µM | 33.7 µM (inactive) | 20.5 µM (inactive) |  | > 100 µM (inactive) | > 100 µM (inactive) | 44.8 µM (inactive) | > 100 µM (inactive) | > 100 µM (inactive) | 29.9 µM (inactive) | 37.2 µM (inactive) | > 100 µM (inactive) | 52.7 µM (inactive) | 32 µM (inactive)
c1ccc(/C(=N\Nc2nc3ccccc3[nH]2)c2ccccn2)cc1 | 0.415 µM (active) | 0.617 µM (active) |  | 0.238 µM (active) | 0.284 µM (active) | 1.69 µM (inactive) | 0.277 µM | 1.14 µM (inactive) | 0.148 µM (active) | 0.407 µM (active) | 0.425 µM (active) | 0.262 µM (active) | 0.0362 µM (active) | 0.687 µM (active) | 0.342 µM (active) | 0.82 µM (active) | 0.415 µM (active) | 0.596 µM (active) | 0.427 µM (active) | 0.443 µM (active)
COC(COC(=O)N1CCN(C=O)CC1)C1=C(N2CC2)C(=O)C(C)=C(N2CC2)C1=O (stereo not drawn) | 0.0336 µM (active) | < 0.0278 µM (active) |  | 0.198 µM (active) | 5.57 µM (inactive) | 1.22 µM (inactive) | 1.73 µM | 1.27 µM (inactive) | 0.0313 µM (active) | 0.219 µM (active) | 0.12 µM (active) | 0.271 µM (active) | 0.157 µM (active) | 0.336 µM (active) | 0.195 µM (active) | 0.169 µM (active) | 2.29 µM (inactive) | 0.167 µM (active) | 0.172 µM (active) | 0.12 µM (active)
C/C=C/CC(C(=O)OCC)(N(C)C(=O)OC(C)(C)C)S(=O)(=O)c1ccc(C)cc1 (stereo not drawn) | > 100 µM (inactive) |  | 45.3 µM (inactive) | > 100 µM (inactive) | 69.2 µM (inactive) | 63.7 µM (inactive) | 61.9 µM | > 100 µM (inactive) | 53.7 µM (inactive) | 81.5 µM (inactive) | > 100 µM (inactive) | 68.7 µM (inactive) | 70.6 µM (inactive) | > 100 µM (inactive) |  | 61.9 µM (inactive) | > 100 µM (inactive) | 85.9 µM (inactive) | 88.7 µM (inactive) | > 100 µM (inactive)
O=C(NI1OC(=O)c2ccccc21)c1ccc(Cl)cc1 | > 100 µM (inactive) | > 100 µM (inactive) | > 100 µM (inactive) | > 100 µM (inactive) | > 100 µM (inactive) | > 100 µM (inactive) | 96.6 µM | > 100 µM (inactive) | > 100 µM (inactive) | 45.7 µM (inactive) | > 100 µM (inactive) | > 100 µM (inactive) | > 100 µM (inactive) |  | > 100 µM (inactive) | 51.6 µM (inactive) | > 100 µM (inactive) | > 100 µM (inactive) | > 100 µM (inactive) | > 100 µM (inactive)
CCOC(=O)C1C(c2ccc(OC)cc2)c2c(n[nH]c2O)CC1(C)O (stereo not drawn) | > 100 µM (inactive) | > 100 µM (inactive) | > 100 µM (inactive) | > 100 µM (inactive) | > 100 µM (inactive) | 45.1 µM (inactive) | > 100 µM | > 100 µM (inactive) | > 100 µM (inactive) | > 100 µM (inactive) | > 100 µM (inactive) | > 100 µM (inactive) | > 100 µM (inactive) | > 100 µM (inactive) |  | > 100 µM (inactive) | > 100 µM (inactive) | > 100 µM (inactive) | > 100 µM (inactive) | > 100 µM (inactive)
C=C(C)C1CC=C(C)C(=O)C1 (stereo not drawn) [CARVONE] | > 100 µM (inactive) | > 100 µM (inactive) | > 100 µM (inactive) | > 100 µM (inactive) | > 100 µM (inactive) | > 100 µM (inactive) | > 100 µM | > 100 µM (inactive) | > 100 µM (inactive) | > 100 µM (inactive) | > 100 µM (inactive) | > 100 µM (inactive) | > 100 µM (inactive) | > 100 µM (inactive) |  |  | > 100 µM (inactive) | > 100 µM (inactive) | > 100 µM (inactive) | > 100 µM (inactive)
